Experiments:
[1] = tested on: LTC4 release from IgE/antigen-activated mouse mast cells (BMMC); test: Inhibition of LTC4 release in allergen/IgE-activated bone marrow-derived mouse mast cells; assay type: cell-based; details: BMMC, anti-DNP IgE sensitized, DNP-BSA 30 ng/ml, 30 min
Excerpt: (§1) Inhibition of LTC4 release and degranulation in allergen/IgE-activated bone marrow-derived mouse mast cells (BMMC): Bone marrow-derived mast cells (BMMC) were generated from pathogen-free 5-7 week old male Balb/c mice according to the method of Davis et al., [2004] (Davis, B. J., et al., (2004), Journal of Immunology, 173: 6914-6920). Essentially, bone marrow cells were obtained by flushing of the femoral bone marrow and cultured in RPMI 1640 medium supplemented with 10% FBS, 100 U/ml penicillin, and 100 μg/ml streptomycin, 25 mM HEPES, 1.0 mM sodium pyruvate, 0.1 mM nonessential amino acids, 0.0035% 2-mercaptoethanol, and 30 ng/ml mouse recombinant IL-3, with culture medium replaced every two days. Cells were used after 4-8 weeks of culture, by which time at least 97% of the cells would have differentiated into mast cells.
(§2) The generated BMMCs were seeded at 5×10^4 cells/well in a 96-well flat-bottom culture plate and passively sensitized overnight with 0.5 μg/ml anti-DNP monoclonal IgE antibody (clone SPE-7, Sigma-Aldrich, St. Louis, Mo., USA). The cells were then washed twice to remove any unbound antibody and subsequently re-suspended in reaction buffer (135 mM NaCl, 5 mM KCl, 1.8 mM CaCl2), 1 mM MgCl2, 5.6 mM glucose, 0.05% BSA and 20 mM HEPES, pH 7.4). They were then pre-incubated with the test compounds (0.01-30 μM) or the solvent (0.05% DMSO) for 15 min before being stimulated with the specific antigen, DNP-BSA (30 ng/ml). After 30 min incubation at 37° C., the amount of LTC4 released into the supernatant (as index of 5-LO activity) was determined by ELISA as described below.
Assay of released leukotrienes/β-hexoseaminidase enzyme: Appropriately diluted supernatants were assayed for the released LTs (LTB4 and LTC4), by the enzyme immunoassay (EIA) method using assay kits supplied by R&D Systems (Minneapolis, Minn., USA) and following the manufacturer's instructions.

[2] = tested on: degranulation of bone marrow-derived mouse mast cells; test: Inhibition of degranulation (β-hexoseaminidase release) in allergen/IgE-activated BMMC; assay type: cell-based; details: anti-DNP IgE sensitized, DNP-BSA 30 ng/ml, 30 min
Excerpt: as §1
as §2, with “They were then pre-incubated with the test compounds (0.01-30 μM) or the solvent (0.05% DMSO) for 15 min before being stimulated with the specific antigen, DNP-BSA (30 ng/ml).” left out
The concurrently-released granular enzyme, β-hexoseaminidase (as index of degranulation) was determined as described below.
The beta-hexoseaminidase released into the supernatant by the degranulating BMMCs was determined colorimetrically using p-nitrophenyl-N-acetyl-β-D-glucosaminide as substrate. […] The absorbance of the colored product (p-nitrophenol) was then read at 405 nm in a microplate reader. Results were expressed as percentage of the total cell content (determined in cells lysed with 0.1% triton-x-100).

[3] = tested on: zymosan-induced peritonitis; test: Zymosan-induced peritoneal inflammation in mice; assay type: in vivo, mouse; details: 30 min before zymosan i.p., peritoneal exudate at 2 h
Excerpt: Inhibition of zymosan-induced peritoneal inflammation in mice: Female Balb/c mice, 6-8 weeks old, obtained from the Animal Resources Center of the Health Sciences Center, Kuwait University, were used. They were maintained under temperature-controlled conditions with an artificial 12-h light/dark cycle and allowed standard chow and water ad libitum. The study protocol was approved by the “Health Sciences Center Animal Welfare Committee” and complied with the “Guidelines for the Care and Use of Laboratory Animals” of the Health Sciences Centre, Kuwait University. The zymosan-induced peritonitis model-a recognized LT-mediated inflammatory reaction, described particularly in Hanke et al., 2013 ([…]., et al. (2013). Journal of medicinal chemistry, 56(22), 9031-9044) was used. […] After 30 min, all groups were injected intraperitonally with 0.2 ml of activated zymosan (2 mg/ml) except the control group that received 0.2 ml PBS. After 2 h, all animals were killed and the peritoneal exudate was collected by washing the cavity with 3 ml of heparinized (10 IU/ml) PBS.

[4] = molecular target: T1, recombinant human 5-LO enzyme (Homo sapiens, UniProt P09917); test: Direct 5-LO inhibitory activity in a cell-free assay (H2DCF-DA fluorescence); assay type: biochemical; details: cell-free, recombinant human 5-LO; read-out: Inhibitory Activity IC50, Human recomb. 5-LO
T1 sequence (P09917 1-674): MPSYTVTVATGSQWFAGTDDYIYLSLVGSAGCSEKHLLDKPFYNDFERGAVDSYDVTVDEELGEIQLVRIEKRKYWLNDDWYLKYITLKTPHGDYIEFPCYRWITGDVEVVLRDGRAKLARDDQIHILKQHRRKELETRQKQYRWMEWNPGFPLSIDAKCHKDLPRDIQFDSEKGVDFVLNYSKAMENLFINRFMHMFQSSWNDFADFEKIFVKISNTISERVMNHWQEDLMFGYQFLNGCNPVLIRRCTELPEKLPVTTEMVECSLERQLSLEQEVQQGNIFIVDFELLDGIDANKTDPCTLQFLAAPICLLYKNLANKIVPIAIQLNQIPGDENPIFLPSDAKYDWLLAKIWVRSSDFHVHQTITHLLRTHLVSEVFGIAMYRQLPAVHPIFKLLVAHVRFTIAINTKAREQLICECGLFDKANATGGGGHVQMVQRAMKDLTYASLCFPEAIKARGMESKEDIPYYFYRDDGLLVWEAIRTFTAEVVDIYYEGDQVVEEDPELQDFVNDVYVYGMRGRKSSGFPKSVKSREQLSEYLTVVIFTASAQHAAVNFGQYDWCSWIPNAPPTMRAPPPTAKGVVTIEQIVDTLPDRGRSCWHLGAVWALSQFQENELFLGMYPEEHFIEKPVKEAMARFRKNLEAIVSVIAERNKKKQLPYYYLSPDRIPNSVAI
Protocol: H2DCF-DA (60 μM) was first pre-cleaved by incubating with 450 mU/ml recombinant human 5-LO enzyme in Tris buffer (containing 50 mM Tris, pH=7.5, 2 mM EDTA, 2 mM CaCl2), 1 mM dithiothreitol (DTT) and 0.6 U/ml glutathione peroxidase) for 10 min at room temperature. […] After 10 min incubation at room temperature, the reaction was started with the addition of 50 μl of the substrate solution (Tris buffer containing 20 μM ATP and 20 μM arachidonic acid). After a further 20 min, the reaction was terminated with 100 μl acetonitrile. Fluorescence was read at 500 nm excitation and 520 emission, with Novostar® microplate reader (BMG Labtech, Offenburg, Germany). Appropriate controls, including 100 μM nordihydroguaiaretic acid (NDGA), were included to isolate only the 5-LO-attributable, NDGA-inhibitable RFU values.

isolated human monocytes = test: In vitro toxicity testing (MTT viability); assay type: cell-based; details: concentrations up to 50 μM, 3 h or 24 h, n=3
Protocol: In Vitro Toxicity Testing: Adherent human monocytes, prepared as described above, were used. The cells were cultured with various concentrations of the test compounds or vehicle, or with 0.05% Triton-X as positive control for 3 h or 24 h. At the end of the culture, cell viability was determined using the MTT (3-(4,5 dimethylthiazol-2-yl)-2,5-diphenyltetrazolium bromide) assay method. Briefly, 15 μl of the MTT solution (5 mg/ml) was added to each well, and incubated at 37° C. for 4 h. After removing the supernatant, 200 μl of dimethylsulfoxide (DMSO) was added to dissolve the crystals. Absorbance at 570 nm was then measured in a microplate reader. Viability was expressed as percentage of the vehicle-treated cells.

Row | SMILES | Inhibition of generation of LTC4 from IgE/allergen-activated mast cells (FIG. 2A) [1] | Inhibition of degranulation (release of granular β-hexoseaminidase) (FIG. 2B) [2] | Net Exudate Vol ([3]; 3 mg/kg s.c.) [mL] | Total Cell No ([3]; 3 mg/kg s.c.) | Total LTC4 ([3]; 3 mg/kg s.c.) [ng] | Net Exudate Vol ([3]; 10 mg/kg s.c.) [mL] | Total Cell No ([3]; 10 mg/kg s.c.) | Total LTC4 ([3]; 10 mg/kg s.c.) [ng] | Net Exudate Vol ([3]; 30 mg/kg s.c.) | Total Cell No ([3]; 30 mg/kg s.c.) | Total LTC4 ([3]; 30 mg/kg s.c.) [ng] | Net Exudate Vol ([3]; 30 mg/kg s.c., listed as Zil) [mL] | IC50 [4] [µM] | Effect on viability of isolated human monocytes (MTT) (isolated human monocytes) | melting point [°C]
1 | CC(c1cc2ccccc2s1)N(O)C(N)=O (racemic) [Zileuton, (±)1-(1-(benzo[b]thiophen-2-yl)ethyl)-1-hydroxyurea, reference compound] | equally effective in inhibiting the generation of LTC4 | only the representative compounds were able to inhibit degranulation | 0.14 ± 0.04 | 16.7 ± 2.8 ×10^6 | 71.0 ± 12.4 | 0.20 ± 0.07 | 24.9 ± 2.1 ×10^6 | 97.2 ± 47.3 | no significant effect on exudate volume | 19.1 ± 4.4 ×10^6 | 48.3 ± 9.8 | 0.10 ± 0.05 | – | – | –
2 | CCCCCC(=O)N(O)C[C@H]1CN(c2ccc(N3CCOCC3)c(F)c2)C(=O)O1 [PH-247, (R)—N-((3-(3-fluoro-4-morpholinophenyl)-2-oxooxazolidin-5-yl)methyl)-N-hydroxyhexanamide] | – | – | – | – | – | – | – | – | – | – | – | – | 3.4 | no significant effect on cell viability | 118.5 to 120.5
3 | CCCCCCC(=O)N(O)C[C@H]1CN(c2ccc(N3CCOCC3)c(F)c2)C(=O)O1 [PH-249, (R)—N-((3-(3-fluoro-4-morpholinophenyl)-2-oxooxazolidin-5-yl)methyl)-N-hydroxyheptanamide] | equally effective in inhibiting the generation of LTC4 | able to inhibit degranulation | – | – | – | 0.16 ± 0.08 | 39.7 ± 6.6 ×10^6 | 107.2 ± 51.6 | 0.06 ± 0.01 mL | 17.8 ± 2.2 ×10^6 | 102.8 ± 20.9 | – | 1.9 | no significant effect on cell viability | 123 to 125

— patent publication US11608320B2, “Oxazolidinone hydroxamic acid derivatives” (KUWAIT UNIVERSITY, priority 2020, dated 2023)
